Measured values: publication PMC8742467, “Therapeutical interference with the epigenetic landscape of germ cell tumors: a comparative drug study and new mechanistical insights” (Clinical Epigenetics, 2022)

Key:
GCT cell lines = assay: XTT cell viability assay, GCT cell lines (pre-screen / summary); type: cell-based, Human; settings: first pre-screen, SE and EC proxies TCam-2 and 2102EP, XTT
Description: The […] (XTT) assays were performed as described previously. In summary, for GCT and fibroblast cell lines 5 × 10^3 cells (3 × 10^3 for UC, PCa and RCC cell lines) per 96-well were seeded and different drug concentrations (see Additional file 2: Fig. S2, Additional file 3: Fig. S3) or corresponding solvents were added to the cells the following day. For drug details see Additional file 12: Table S2 C. Each condition was analyzed in four technical replicates and EC50 values were calculated by GraphPad Prism v8.

[1] = tested on: DNA methylation (5mC, 5hmC) in 2102EP cells; assay: DNA slot blot (5mC, 5hmC); type: cell-based, Human; settings: 24 h
Description: Purity of DNA was verified using NanoDrop 260/280 ratio and agarose gel electrophoresis. DNA was diluted in H2O to 200 ng, 100 ng and 50 ng in 200 µl per slot. Slot-Blotter device (Carl Roth GmbH + Co KG, Karlsruhe, Germany) was assembled as according to the manual. DNA was blotted onto a positively charged nylon membrane (Carl Roth GmbH + Co KG, Karlsruhe, Germany) using vacuum application. Three identical membranes were prepared. The membranes were air-dried for 15—20 min and UV-crosslinked (20 s (s), 1200 mJ/cm^2). One membrane was stained with methylene blue (0.02% methylene blue (Merck Millipore, Darmstadt, Germany) in 0.3 M sodium acetate (pH 5.2)) to validate DNA loading across the samples. The remaining two membranes were blocked in 5% milk powder in PBST for 1 h at RT. Membranes were incubated with 5mC or 5hmC antibody overnight at 4 °C. After washing, membranes were incubated with secondary antibody for 2 h at RT. Signals were detected using the ChemiDoc Imaging Systems (Bio-Rad Laboratories, Feldkirchen, Germany).

[2] = tested on: transcriptome of 2102EP cells; assay: RNA sequencing; type: cell-based, Human; settings: 16 h
Description: Transcriptome analysis has been performed as previously described at the core facility ‘Genomics & Transcriptomics’ (Prof. Dr. Karl Köhrer, Biomedical Research Center, Heinrich Heine University, Düsseldorf, Germany) and has been publicly shared via GEO (https://www.ncbi.nlm.nih.gov/geo/, GSE189472). RNA samples were quantified and measured as previously described. Statistical analyses were performed using the ‘Differential Expression in two groups’ tool (version 1.02) (Qiagen) and the resulting p values were corrected for multiple testing by false discovery rate (FDR). Accompanying PCA and heatmap were generated using Qlucore Omics Explorer 3.7 (Qlucore AB, Lund, Sweden). Values of solvent controls wereaveraged from the studies GSE189472, GSE190792 and GSE190022 [95].

[3] = tested on: histone modifications in 2102EP cells; assay: Mass spectrometry analysis of histone modifications (Mod Spec); type: cell-based, Human
Description: 2102EP cells were treated with the EC50 concentrations for Quisinostat, JIB-04, Chaetocin, MZ-1, LP99, PRT4165, GSK343 and DMSO as solvent control. The cells were harvested via trypsinization after 16 h. The mass spectrometric analysis of histone modifications was outsourced to the Mod Spec service by Active Motif (Carlsbad, CA, USA). Histone extraction and mass spectrometric analysis was performed as described previously. Raw data were transformed into z-scores as the input. The heatmap was generated in R using ‘pheatmap’ with default settings and provided by Active Motif.

[4] = tested on: phosphorylated kinase targets in 2102EP cells; assay: Proteome Profiler Human Phospho-Kinase Array; type: cell-based; settings: 16 h
Description: For the detection of phosphorylated kinase targets, the Proteome Profiler Human Phospho-Kinase Array Kit (R&D Systems, Abingdon, UK) was used according to the manufacturer’s instructions. The ChemiDoc Imaging System (Bio-Rad Laboratories, Feldkirchen, Germany) was used for detection. 2102EP cells were harvested after 16 h of treatment with the epi-drugs. Pixel density was analyzed using Fiji ImageJ 1.53c.

[5] = sorted data log2>±1.5, FDR p<0.05
[6] = 2102EP cells, Mod Spec raw data
[7] = 2102EP, EC50, 16 h, vs solvent control

Clc1ccc(N/N=C(\c2ccccc2)c2ccccn2)nc1 [JIB-04]
EC50 / effective concentration in words (GCT cell lines): nanomolar range | reduction in 5mC levels [1]: 27% | DDIT4 Log2 fold change vs. DMSO [2, 5]: 1.60 | EIF3CL Log2 fold change vs. DMSO [2, 5]: -1.72 | SLC16A3 Log2 fold change vs. DMSO [2, 5]: 1.76 | A1BG Log2 fold change vs. DMSO ([2]; unsorted data): -0.0173 | A1CF Log2 fold change vs. DMSO ([2]; unsorted data): -2.00 | A2M Log2 fold change vs. DMSO ([2]; unsorted data): 0.04 | H1.4: K25AC, % of peptide pool [3, 6]: 0.003915% | H1.4: K25ME1, % of peptide pool [3, 6]: 2.18% | H1.4: K25ME2, % of peptide pool [3, 6]: 0.06041% | H1.4: K25ME3, % of peptide pool [3, 6]: 0.002903% | H1.4: K25UN, % of peptide pool [3, 6]: 97.7528% | H2A1: K13AC, % of peptide pool [3, 6]: 0.01774% | H2A1: K13UN, % of peptide pool [3, 6]: 99.9823% | H2A1: K15AC, % of peptide pool [3, 6]: 0.006947% | H2A1: K15UB, % of peptide pool [3, 6]: 0% | H2A1: K15UN, % of peptide pool [3, 6]: 99.9931% | H2A3: K13AC, % of peptide pool [3, 6]: 0.0449% | H2A3: K13UN, % of peptide pool [3, 6]: 99.9551% | H2A3: K15AC, % of peptide pool [3, 6]: 0.04676% | H2A3: K15UB, % of peptide pool [3, 6]: 0% | H2A3: K15UN, % of peptide pool [3, 6]: 99.9532% | H2A: K5AC, % of peptide pool [3, 6]: 17.3435% | H2A: K5UN, % of peptide pool [3, 6]: 82.6565% | H2A: K9AC, % of peptide pool [3, 6]: 2.608% | H2A: K9UN, % of peptide pool [3, 6]: 97.3916% | H2A: K36AC, % of peptide pool [3, 6]: 0.02653% | H2A: K36UN, % of peptide pool [3, 6]: 99.9735% | H3: K9AC, % of peptide pool [3, 6]: 0.7026% | H3: K9ME1, % of peptide pool [3, 6]: 34.4011% | H3: K9ME2, % of peptide pool [3, 6]: 29.5437% | H3: K9ME3, % of peptide pool [3, 6]: 3.1432% | H3: K9UN, % of peptide pool [3, 6]: 32.2094% | H3: K14AC, % of peptide pool [3, 6]: 29.7131% | H3: K14UN, % of peptide pool [3, 6]: 70.2869% | H3: K18AC, % of peptide pool [3, 6]: 13.9058% | H3: K18ME1, % of peptide pool [3, 6]: 0.1878% | H3: K18UN, % of peptide pool [3, 6]: 85.9064% | H3: K23AC, % of peptide pool [3, 6]: 21.6519% | H3: K23ME1, % of peptide pool [3, 6]: 0.01047% | H3: K23UN, % of peptide pool [3, 6]: 78.3377% | H3: K56AC, % of peptide pool [3, 6]: 0.09324% | H3: K56ME1, % of peptide pool [3, 6]: 0.04566% | H3: K56UN, % of peptide pool [3, 6]: 99.8611% | H3: K64AC, % of peptide pool [3, 6]: 0.01353% | H3: K64UN, % of peptide pool [3, 6]: 99.9865% | H3: K79AC, % of peptide pool [3, 6]: 0.03684% | H3: K79ME1, % of peptide pool [3, 6]: 12.2939% | H3: K79ME2, % of peptide pool [3, 6]: 5.57% | H3: K79ME3, % of peptide pool [3, 6]: 6.201% | H3: K79UN, % of peptide pool [3, 6]: 75.8979% | H3: K122AC, % of peptide pool [3, 6]: 0.03356% | H3: K122UN, % of peptide pool [3, 6]: 99.9664% | H3: Q19ME1, % of peptide pool [3, 6]: 0.003167% | H3: Q19UN, % of peptide pool [3, 6]: 99.9968% | H3: Q55ME1, % of peptide pool [3, 6]: 0.032% | H3: Q55UN, % of peptide pool [3, 6]: 99.968% | H3: R42ME2, % of peptide pool [3, 6]: 1.896% | H3: R42UN, % of peptide pool [3, 6]: 98.1041% | H3: R49ME2, % of peptide pool [3, 6]: 4.211% | H3: R49UN, % of peptide pool [3, 6]: 95.789% | H3R2UN: K4AC, % of peptide pool [3, 6]: 0.05876% | H3R2UN: K4ME1, % of peptide pool [3, 6]: 17.7716% | H3R2UN: K4ME2, % of peptide pool [3, 6]: 0.2231% | H3R2UN: K4ME3, % of peptide pool [3, 6]: 0.06844% | H3R2UN: K4UN, % of peptide pool [3, 6]: 81.8781% | H3R2UN: Q5ME1, % of peptide pool [3, 6]: 0.02831% | H3R2UN: Q5UN, % of peptide pool [3, 6]: 99.9717% | H3.1: K27AC, % of peptide pool [3, 6]: 2.414% | H3.1: K27ME1, % of peptide pool [3, 6]: 49.3304% | H3.1: K27ME2, % of peptide pool [3, 6]: 16.204% | H3.1: K27ME3, % of peptide pool [3, 6]: 1.814% | H3.1: K27UN, % of peptide pool [3, 6]: 30.2382% | H3.1: K36AC, % of peptide pool [3, 6]: 0.1106% | H3.1: K36ME1, % of peptide pool [3, 6]: 13.2702% | H3.1: K36ME2, % of peptide pool [3, 6]: 51.7553% | H3.1: K36ME3, % of peptide pool [3, 6]: 20.9267% | H3.1: K36UN, % of peptide pool [3, 6]: 13.9372% | H3.3: K27AC, % of peptide pool [3, 6]: 4.408% | H3.3: K27M, % of peptide pool [3, 6]: 0% | H3.3: K27ME1, % of peptide pool [3, 6]: 52.2182% | H3.3: K27ME2, % of peptide pool [3, 6]: 11.913% | H3.3: K27ME3, % of peptide pool [3, 6]: 2.973% | H3.3: K27UN, % of peptide pool [3, 6]: 28.488% | H3.3: K36AC, % of peptide pool [3, 6]: 1.2917% | H3.3: K36ME1, % of peptide pool [3, 6]: 11.4367% | H3.3: K36ME2, % of peptide pool [3, 6]: 56.7436% | H3.3: K36ME3, % of peptide pool [3, 6]: 20.5666% | H3.3: K36UN, % of peptide pool [3, 6]: 9.961% | H4: K5AC, % of peptide pool [3, 6]: 7.467% | H4: K5UN, % of peptide pool [3, 6]: 92.5334% | H4: K8AC, % of peptide pool [3, 6]: 11.3876% | H4: K8UN, % of peptide pool [3, 6]: 88.6124% | H4: K12AC, % of peptide pool ([3]; 2102EP cells, Mod Spec raw data, histone H4 K12 acetylated): 6.714 % of peptide pool | H4: K12UN, % of peptide pool ([3]; 2102EP cells, Mod Spec raw data, histone H4 K12 unmodified): 93.2862 % of peptide pool | H4: K16AC, % of peptide pool ([3]; 2102EP cells, Mod Spec raw data, histone H4 K16 acetylated): 46.6822 % of peptide pool | H4: K16UN, % of peptide pool ([3]; 2102EP cells, Mod Spec raw data, histone H4 K16 unmodified): 53.3178 % of peptide pool | H4: K20AC, % of peptide pool ([3]; 2102EP cells, Mod Spec raw data, histone H4 K20 acetylated): 14.5151 % of peptide pool | H4: K20ME2, % of peptide pool ([3]; 2102EP cells, Mod Spec raw data, histone H4 K20 dimethylated): 53.9426 % of peptide pool | H4: K20ME1, % of peptide pool ([3]; 2102EP cells, Mod Spec raw data, histone H4 K20 monomethylated): 5.183 % of peptide pool | H4: K20ME3, % of peptide pool ([3]; 2102EP cells, Mod Spec raw data, histone H4 K20 trimethylated): 2.177 % of peptide pool | H4: K20UN, % of peptide pool ([3]; 2102EP cells, Mod Spec raw data, histone H4 K20 unmodified): 24.182 % of peptide pool | change of histone modifications of the expected mode of action (Mod Spec) [3, 7]: slightly increased H3K4me2/me3 marks | off-target changes of histone modifications (Mod Spec) [3, 7]: decrease in H4K16ac and H4K20ac | CREB, STAT3 and STAT5 phosphorylation and total levels of β-Catenin and HSP60 [4]: decreased | ERK1/2 phosphorylation [4]: decreased | p53 S15 phosphorylation [4]: increased
